Experimental data as given in ChEMBL document CHEMBL5625182, “Synthesis and antibacterial activities of baulamycin A inspired derivatives” (Eur J Med Chem, 2023).
In brackets after ≈: the same amount, converted by molar mass. Activity calls are given as the source filed them. The rule behind the calls is not given here.

Tests used:
[1] = biological target: T1, L-2,3-diaminopropanoate--citrate ligase (Staphylococcus aureus (strain NCTC 8325 / PS 47)) (UniProt Q2G1M9); assay: Inhibition of Staphylococcus aureus SbnE at 50 uM incubated for 1 hr by malachite green staining based microplate reader analysis relative to control
T1 sequence (whole entry): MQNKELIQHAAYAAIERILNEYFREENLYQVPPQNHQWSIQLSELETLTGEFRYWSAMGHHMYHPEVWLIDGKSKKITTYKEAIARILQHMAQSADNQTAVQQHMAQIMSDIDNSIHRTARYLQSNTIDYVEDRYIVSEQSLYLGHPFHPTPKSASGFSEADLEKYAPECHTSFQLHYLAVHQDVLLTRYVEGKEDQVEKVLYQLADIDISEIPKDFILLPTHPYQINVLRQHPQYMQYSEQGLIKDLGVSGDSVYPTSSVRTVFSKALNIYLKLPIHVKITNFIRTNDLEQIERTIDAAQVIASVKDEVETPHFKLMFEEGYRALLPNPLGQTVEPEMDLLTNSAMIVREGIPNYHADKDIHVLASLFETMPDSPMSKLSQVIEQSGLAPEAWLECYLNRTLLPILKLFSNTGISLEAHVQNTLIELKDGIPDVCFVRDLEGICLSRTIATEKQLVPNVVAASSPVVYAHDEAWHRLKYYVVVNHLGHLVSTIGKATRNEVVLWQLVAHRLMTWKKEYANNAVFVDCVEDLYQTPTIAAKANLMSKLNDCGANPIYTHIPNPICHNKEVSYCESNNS

Staphylococcus aureus [2] = assay: Antibacterial activity against methicillin resistant Staphylococcus aureus CCARM3167 assessed as inhibition in bacterial growth incubated for 18 hrs by microdilution method; format: functional
Staphylococcus aureus [3] = assay: Antibacterial activity against […] Staphylococcus aureus ATCC25923 assessed as inhibition in bacterial growth incubated for 18 hrs by microdilution method; format: functional
Staphylococcus aureus [4] = assay: Antibacterial activity against quinolone-resistant Staphylococcus aureus CCARM3505 assessed as inhibition of bacterial growth incubated for 18 hrs by microdilution method; format: functional
Bacillus cereus = assay: Antibacterial activity against Bacillus cereus ATCC27348 assessed as inhibition of bacterial growth incubated for 18 hrs by microdilution method; format: functional
[5] = Antibacterial activity against Bacillus subtilis ATCC6633 assessed as inhibition of bacterial growth incubated for 18 hrs by microdilution method; format: functional, Bacillus subtilis […]
Escherichia coli = assay: Antibacterial activity against Escherichia coli MC1061 assessed as inhibition of bacterial growth incubated for 18 hrs by microdilution method; format: functional
Salmonella typhimurium = assay: Antibacterial activity against Salmonella typhimurium ATCC14028 assessed as inhibition of bacterial growth incubated for 18 hrs by microdilution method; format: functional, Salmonella enterica subsp. enterica serovar Typhimurium; settings: Salmonella enterica
[6] = biological target: T2, L-2,3-diaminopropanoate--citrate ligase (Staphylococcus aureus (strain NCTC 8325 / PS 47), UniProt Q2G1M9); assay: Inhibition of Staphylococcus aureus SbnE incubated for 1 hr by malachite green staining based microplate reader analysis
T2 sequence (Q2G1M9 whole entry): T1 sequence (whole entry)

Cell membrane = assay: Induction of membrane disruption in methicillin resistant Staphylococcus aureus CCARM3167 at MIC incubated for 30 mins PI staining based Flow cytometry

Row | Structure (SMILES) | inhibition [1] [%] | MIC (Staphylococcus aureus [2]) [µg/mL] | MIC (Staphylococcus aureus [3]) [µg/mL] | MIC (Staphylococcus aureus [4]) [µg/mL] | MIC (Bacillus cereus) [µg/mL] | MIC [5] [µg/mL] | MIC (Escherichia coli) [µg/mL] | MIC (Salmonella typhimurium) [µg/mL] | IC50 [6] [µM] | Activity (Cell membrane)
1 | CC(C)C[C@@H]([C@H](O)CCCCCCCCCCO)[C@@H](O)c1cc(O)cc(O)c1 | 19.8 | > 256 | > 256 | – | – | – | – | – | – | –
2 | CC(C)C[C@@H]([C@H](O)CCNCc1ccccc1)[C@@H](O)c1cc(O)cc(O)c1 | 5.63 | > 256 | > 256 | – | – | – | – | – | – | –
3 | CC(C)C[C@H]([C@H](O)CCO)[C@@H](O)c1cc(O)cc(O)c1 | 28.3 | > 256 | > 256 | – | – | – | – | – | – | –
4 | CCn1cc(C(=O)O)c(=O)c2cc(F)c(N3CCNCC3)cc21 [NORFLOXACIN] | 16.8 | 4 (≈ 12.5 µM) | > 256 | > 256 | 2 (≈ 6.26 µM) | 4 (≈ 12.5 µM) | 2 (≈ 6.26 µM) | 2 (≈ 6.26 µM) | – | –
5 | Cc1onc(-c2ccccc2)c1C(=O)N[C@@H]1C(=O)N2[C@@H]1SC(C)(C)[C@@H]2C(=O)O [OXACILLIN] | 10.2 | > 256 | 0.25 (≈ 0.623 µM) | > 256 | 32 (≈ 79.7 µM) | 8 (≈ 19.9 µM) | 64 (≈ 159 µM) | 64 (≈ 159 µM) | – | –
6 | CC(C)C[C@@H]([C@@H](O)C[C@H](O)CC[C@@H](C)C[C@H](C)C[C@@H](C)CO)[C@@H](O)c1cc(O)cc(O)c1 | 59.1 | > 256 | > 256 | – | – | – | – | – | 28.5 | –
7 | CC(C)C[C@H]([C@H](O)CCNc1c(Cl)cccc1Cl)[C@@H](O)c1cc(O)cc(O)c1 | 26.8 | 128 (≈ 299 µM) | 256 (≈ 598 µM) | – | – | – | – | – | – | –
8 | CC(C)C[C@@H]([C@H](O)C[C@H](O)C#C[C@@H](C)C[C@H](C)C[C@@H](C)COCc1ccccc1)[C@@H](O)c1cc(O)cc(O)c1 | 76.8 | 64 (≈ 118 µM) | 64 (≈ 118 µM) | – | – | – | – | – | 11.8 | –
9 | CC(C)C[C@H]([C@H](O)CC(O)C#C[C@@H](C)C[C@@H](C)C[C@@H](C)CO)[C@@H](O)c1cc(O)cc(O)c1 (stereo partly drawn) | 74.7 | 64 (≈ 142 µM) | 64 (≈ 142 µM) | – | – | – | – | – | 6.76 | –
10 | CC(C)C[C@H]([C@H](O)CCNc1cc(Cl)c(F)cc1[N+](=O)[O-])[C@@H](O)c1cc(O)cc(O)c1 | 6.49 | 256 (≈ 560 µM) | 128 (≈ 280 µM) | – | – | – | – | – | – | –
11 | CCC[C@@H](O)[C@@H](CC(C)C)[C@@H](O)c1cc(O)cc(O)c1 | 25.6 | > 256 | > 256 | – | – | – | – | – | – | –
12 | CC(C)C[C@@H]([C@H](O)C[C@H](O)C#CCCCCCCOCc1ccccc1)[C@@H](O)c1cc(O)cc(O)c1 | 97.1 | 128 (≈ 257 µM) | 128 (≈ 257 µM) | – | – | – | – | – | 7.16 | –
13 | C[C@@H](COCc1ccccc1)C[C@H](C)C[C@H](C)C#CC(O)c1cc(O)cc(O)c1 (stereo partly drawn) | 34.8 | 4 (≈ 10.1 µM) | 2 (≈ 5.04 µM) | – | – | – | – | – | – | –
14 | CCC(=O)[C@@H](C)C[C@@H](C)C[C@@H](C)CCCC[C@@H](O)[C@@H](CC(C)C)[C@@H](O)c1cc(O)cc(O)c1 | 81.5 | 4 (≈ 8.61 µM) | 8 (≈ 17.2 µM) | – | – | – | – | – | 16.4 | –
15 | CC(C)C[C@H]([C@H](O)CCNc1ccccn1)[C@@H](O)c1cc(O)cc(O)c1 | 36.4 | > 256 | > 256 | – | – | – | – | – | – | –
16 | CC(C)C[C@H]([C@H](O)CCNCc1ccco1)[C@@H](O)c1cc(O)cc(O)c1 | 34.5 | > 256 | > 256 | – | – | – | – | – | – | –
17 | CCN(CC[C@@H](O)[C@@H](CC(C)C)[C@@H](O)c1cc(O)cc(O)c1)Cc1ccccc1 | 5.19 | 16 (≈ 39.8 µM) | 16 (≈ 39.8 µM) | – | – | – | – | – | – | –
18 | C=CC[C@@H](O)[C@H](CC(C)C)[C@@H](O)c1cc(O)cc(O)c1 | 39.5 | > 256 | > 256 | – | – | – | – | – | – | –

Row | Structure (SMILES) | inhibition [1] [%] | MIC (Staphylococcus aureus [2]) [µg/mL] | MIC (Staphylococcus aureus [3]) [µg/mL] | MIC (Staphylococcus aureus [4]) [µg/mL] | MIC (Bacillus cereus) [µg/mL] | MIC [5] [µg/mL] | MIC (Escherichia coli) [µg/mL] | MIC (Salmonella typhimurium) [µg/mL] | IC50 [6] [µM] | Activity (Cell membrane)
19 | CC(C)C[C@H]([C@H](O)CCNc1cccc([N+](=O)[O-])c1)[C@@H](O)c1cc(O)cc(O)c1 | 5.19 | 256 (≈ 633 µM) | 64 (≈ 158 µM) | – | – | – | – | – | – | –
20 | CC(C)C[C@H]([C@H](O)CCNc1ccccc1O)[C@@H](O)c1cc(O)cc(O)c1 | 4.87 | 64 (≈ 170 µM) | 64 (≈ 170 µM) | – | – | – | – | – | – | –
21 | CC(C)C[C@H]([C@H](O)CCNc1ccc(Cl)cc1Cl)[C@@H](O)c1cc(O)cc(O)c1 | 41.8 | 4 (≈ 9.34 µM) | 8 (≈ 18.7 µM) | – | – | – | – | – | – | –
22 | C[C@@H](COCc1ccccc1)C[C@H](C)C[C@H](C)C#CC(O)CC(O)C[C@@H](O)c1cc(O)cc(O)c1 (single isomer, unassigned) | 33.6 | 64 (≈ 132 µM) | 64 (≈ 132 µM) | – | – | – | – | – | – | –
23 | Cc1ccc([N+](=O)[O-])cc1NCC[C@@H](O)[C@@H](CC(C)C)[C@@H](O)c1cc(O)cc(O)c1 | 32 | 64 (≈ 153 µM) | 32 (≈ 76.5 µM) | – | – | – | – | – | – | –
24 | CC(C)C[C@H]([C@H](O)CCNc1ccn(C)n1)[C@@H](O)c1cc(O)cc(O)c1 | 48.2 | 128 (≈ 352 µM) | 128 (≈ 352 µM) | – | – | – | – | – | – | –
25 | CC(C)C[C@@H]([C@H](O)C[C@H](O)CC[C@@H](C)C[C@H](C)C[C@@H](C)CO)[C@@H](O)c1cc(O)cc(O)c1 | 31.1 | > 256 | > 256 | – | – | – | – | – | – | –
26 | C=CC[C@@H](O)[C@@H](CC(C)C)[C@@H](O)c1cc(O)cc(O)c1 | 96.8 | > 256 | > 256 | – | – | – | – | – | 8.2 | –
27 | CCC(O)[C@H](C)C[C@H](C)C[C@H](C)CC[C@@H](O)C[C@@H](O)[C@@H](CC(C)C)[C@@H](O)c1cc(O)cc(O)c1 (stereo partly drawn) | 58.7 | 32 (≈ 66.3 µM) | 32 (≈ 66.3 µM) | – | – | – | – | – | 17.1 | –
28 | CCC(=O)[C@H](C)C[C@H](C)C[C@H](C)CC[C@@H](O)C[C@@H](O)[C@@H](CC(C)C)[C@@H](O)c1cc(O)cc(O)c1 | 61.2 | 256 (≈ 533 µM) | 256 (≈ 533 µM) | 64 (≈ 133 µM) | 256 (≈ 533 µM) | > 256 | 64 (≈ 133 µM) | > 256 | 14.4 | Active
29 | CC(C)C[C@@H]([C@H](O)C[C@H](O)CCCCCCCCO)[C@@H](O)c1cc(O)cc(O)c1 | 38.4 | > 256 | > 256 | – | – | – | – | – | – | –
30 | CC(C)C[C@@H]([C@H](O)CCCC[C@@H](C)C[C@H](C)C[C@@H](C)CO)[C@@H](O)c1cc(O)cc(O)c1 | 79.4 | > 256 | > 256 | – | – | – | – | – | 10.5 | –
31 | CC(C)C[C@H]([C@H](O)CCNCc1cccc([N+](=O)[O-])c1)[C@@H](O)c1cc(O)cc(O)c1 | 50.8 | > 256 | > 256 | – | – | – | – | – | 92.5 | –
32 | Cc1ccc(NCC[C@H](O)[C@@H](CC(C)C)[C@@H](O)c2cc(O)cc(O)c2)c(Cl)c1 | 54.8 | 64 (≈ 157 µM) | 64 (≈ 157 µM) | – | – | – | – | – | 18.9 | –
33 | CC(C)C[C@H]([C@H](O)CCNc1ccccc1)[C@@H](O)c1cc(O)cc(O)c1 | 75.1 | 8 (≈ 22.3 µM) | 4 (≈ 11.1 µM) | – | – | – | – | – | 18.2 | –
34 | C[C@@H](CO)C[C@H](C)C[C@H](C)C#CC(O)CC(O)C[C@@H](O)c1cc(O)cc(O)c1 (single isomer, unassigned) | 6.92 | 128 (≈ 324 µM) | 128 (≈ 324 µM) | – | – | – | – | – | – | –
35 | CC(C)C[C@H]([C@H](O)CCNc1ccc(O)cc1)[C@@H](O)c1cc(O)cc(O)c1 | 8.18 | > 256 | 64 (≈ 170 µM) | – | – | – | – | – | – | –
36 | CC(C)C[C@H]([C@H](O)C[C@H](O)C#CCCCCCCOCc1ccccc1)[C@@H](O)c1cc(O)cc(O)c1 | 81.9 | 128 (≈ 257 µM) | 128 (≈ 257 µM) | 128 (≈ 257 µM) | 64 (≈ 128 µM) | > 256 | > 256 | > 256 | 10.2 | Active
